# In patent US8138168B1 (Takeda Pharmaceutical Company Limited, priority 2007, dated 2012):
# Like-named read-outs stand apart in the source and are kept apart here.
# Target: T1, Recombinant human renin (Homo sapiens, UniProt P00797)
# T1 construct: isolate the active form (residues 67-406); made in house; host or cells: FreeStyle 293-F cells (transient expression of pcDNA3.1(+)/hREN)
# T1 sequence (P00797 67-406): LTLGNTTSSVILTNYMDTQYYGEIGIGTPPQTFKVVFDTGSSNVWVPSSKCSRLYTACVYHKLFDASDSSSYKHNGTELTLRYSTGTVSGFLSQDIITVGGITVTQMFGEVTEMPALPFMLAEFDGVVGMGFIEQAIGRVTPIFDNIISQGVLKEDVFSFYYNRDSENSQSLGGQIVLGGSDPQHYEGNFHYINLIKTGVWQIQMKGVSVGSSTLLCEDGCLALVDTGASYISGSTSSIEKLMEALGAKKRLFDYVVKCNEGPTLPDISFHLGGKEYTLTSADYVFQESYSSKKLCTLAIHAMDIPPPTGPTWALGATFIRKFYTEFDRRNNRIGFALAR
# Assay: In vitro enzymatic activity assay of renin inhibitors (fluorogenic peptide substrate)
# Type: biochemical
# In short: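 Recombinant human renin (3 nM final) pre-incubated 10 min at 37 °C with compounds in pH 7.4 Hepes/EDTA/DTT/0.1 mg/mL BSA/Brij35 buffer (optionally plus 2% BSA), 5% DMSO final; fluorogenic QXL520/HiLyteFluo488 peptide substrate added.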
# [1] = read-out: IC50 of Exemplified Compounds Against Renin
IC50 [1] [nM],IC50 [nM],SMILES
< 100,–,"CC(=O)NCCn1c([C@@H]2CCCN(C(=O)C[C@H](N)Cc3ccc(-c4ccc5c(c4)SCC(=O)O5)cc3)C2)nc2ccccc21 [Compound 464, N-(2-(2-((R)-1-((R)-3-amino-4-(4-(2-oxo-2,3-dihydrobenzo[b][1,4]oxathiin-6-yl)phenyl)butanoyl)piperidin-3-yl)-1H-benzo[d]imidazol-1-yl)ethyl)acetamide]"
< 100,–,"COCCCn1c([C@@H]2CCCN(C(=O)C[C@H](N)Cc3ccc(-c4ccc(NC(=O)OC)cc4)cc3)C2)nc2ccccc21 [Compound 176, methyl 4′-((R)-2-amino-4-((R)-3-(1-(3-methoxypropyl)-1H-benzo[d]imidazol-2-yl)piperidin-1-yl)-4-oxobutyl)biphenyl-4-ylcarbamate]"
100 to 1000,–,"COCCCn1c([C@@H]2CCCN(C(=O)[C@@H]3CN(S(=O)(=O)c4ccccc4Cl)C[C@H]3N)C2)nc2ccccc21 [Compound 346, ((3R,4S)-4-amino-1-(2-chlorophenylsulfonyl)pyrrolidin-3-yl)((R)-3-(1-(3-methoxypropyl)-1H-benzo[d]imidazol-2-yl)piperidin-1-yl)methanone]"
–,< 100,"COCCCn1c([C@@H]2CCCN(C(=O)C[C@H](N)CNC(=O)Nc3ccccc3Cl)C2)nc2ccccc21 [Compound 257, 1-((S)-2-amino-4-((R)-3-(1-(3-methoxypropyl)-1H-benzo[d]imidazol-2-yl)piperidin-1-yl)-4-oxobutyl)-3-(2-chlorophenyl)urea]"
< 100,–,"COCCCn1c([C@@H]2CCCN(C(=O)C[C@H](N)Cc3ccc(-c4ccc5c(c4)SCC(=O)N5)cc3)C2)nc2c(F)cccc21 [Compound 442, 7-(4-((R)-2-amino-4-((R)-3-(4-fluoro-1-(3-methoxypropyl)-1H-benzo[d]imidazol-2-yl)piperidin-1-yl)-4-oxobutyl)phenyl)-2H-benzo[b][1,4]thiazin-3(4H)-one]"
> 1000,–,"N[C@@H](CC(=O)N1CCCC(c2nc3ccccc3[nH]2)C1)Cc1ccccc1Cl (stereo partly drawn) [Compound 27, (3R)-1-(3-(1H-benzo[d]imidazol-2-yl)piperidin-1-yl)-3-amino-4-(2-chlorophenyl)butan-1-one]"
< 100,–,"COCCCn1c([C@@H]2CCCN(C(=O)C[C@H](N)CNC(=O)Nc3ccc(Cl)c(Cl)c3)C2)nc2ccccc21 [Compound 255, 1-((S)-2-amino-4-((R)-3-(1-(3-methoxypropyl)-1H-benzo[d]imidazol-2-yl)piperidin-1-yl)-4-oxobutyl)-3-(3,4-dichlorophenyl)urea]"
> 1000,–,"COCCCn1c([C@@H]2CCCN(C(=O)[C@@H]3CN(C(=O)c4ccc(Cl)cc4)C[C@H]3N)C2)nc2ccccc21 [Compound 416, ((3R,4S)-4-amino-1-(4-chlorobenzoyl)pyrrolidin-3-yl)((R)-3-(1-(3-methoxypropyl)-1H-benzo[d]imidazol-2-yl)piperidin-1-yl)methanone]"
100 to 1000,–,"COCCCn1c([C@@H]2CCCN(C(=O)[C@@H]3CN(S(=O)(=O)c4cccc(-c5ccnc(C)n5)c4)C[C@H]3N)C2)nc2ccccc21 [Compound 430, ((3R,4S)-4-amino-1-(3-(2-methylpyrimidin-4-yl)phenylsulfonyl)pyrrolidin-3-yl)((R)-3-(1-(3-methoxypropyl)-1H-benzo[d]imidazol-2-yl)piperidin-1-yl)methanone]"
> 1000,–,"COCCCn1c([C@@H]2CCCN(C(=O)C[C@H](N)CNC(=O)C3CCCC3)C2)nc2ccccc21 [Compound 331, N-((S)-2-amino-4-((R)-3-(1-(3-methoxypropyl)-1H-benzo[d]imidazol-2-yl)piperidin-1-yl)-4-oxobutyl)cyclopentanecarboxamide]"
100 to 1000,–,"COCCCn1c([C@@H]2CCCN(C(=O)C[C@H](N)CNC(=O)c3ccc(Cl)cc3)C2)nc2ccccc21 [Compound 309, N-((S)-2-amino-4-((R)-3-(1-(3-methoxypropyl)-1H-benzo[d]imidazol-2-yl)piperidin-1-yl)-4-oxobutyl)-4-chlorobenzamide]"
> 1000,–,"CC[C@@H](N)C(=O)N1CCCC(c2nc3ccccc3[nH]2)C1 (stereo partly drawn) [Compound 51, (2R)-1-(3-(1H-benzo[d]imidazol-2-yl)piperidin-1-yl)-2-aminobutan-1-one]"
> 1000,–,"COCCCn1c([C@@H]2CCCN(C(=O)[C@@H]3CN(C(=O)c4c(Cl)cccc4Cl)C[C@H]3N)C2)nc2ccccc21 [Compound 414, ((3R,4S)-4-amino-1-(2,6-dichlorobenzoyl)pyrrolidin-3-yl)((R)-3-(1-(3-methoxypropyl)-1H-benzo[d]imidazol-2-yl)piperidin-1-yl)methanone]"
100 to 1000,–,"COCCCn1c([C@@H]2CCCN(C(=O)C[C@H](N)Cc3ccc(-n4ccc(=O)n(C)c4=O)cc3)C2)nc2ccccc21 [Compound 210, 1-(4-((R)-2-amino-4-((R)-3-(1-(3-methoxypropyl)-1H-benzo[d]imidazol-2-yl)piperidin-1-yl)-4-oxobutyl)phenyl)-3-methylpyrimidine-2,4(1H,3H)-dione]"
> 1000,–,"COCCCn1c([C@@H]2CCCN(C(=O)[C@@H]3CN(S(=O)(=O)c4ccc5c(c4)OCCO5)C[C@H]3N)C2)nc2ccccc21 [Compound 337, ((3R,4S)-4-amino-1-(2,3-dihydrobenzo[b][1,4]dioxin-6-ylsulfony)pyrrolidin-3-yl)((R)-3-(1-(3-methoxypropyl)-1H-benzo[d]imidazol-2-yl)piperidin-1-yl)methanone]"
> 1000,–,"O=C(Nc1ccc2c(c1)CCC2)N1CCCC(c2nc3ccccc3[nH]2)C1 (stereo not drawn) [Compound 9, 3-(1H-benzo[d]imidazol-2-yl)-N-(2,3-dihydro-1H-inden-5-yl)piperidine-1-carboxamide]"
< 100,–,"COCCCn1c([C@@H]2CCCN(C(=O)C[C@H](N)Cc3ccc(-c4ccnc(Cl)c4)cc3)C2)nc2ccccc21 [Compound 133, (R)-3-amino-4-(4-(2-chloropyridin-4-yl)phenyl)-1-((R)-3-(1-(3-methoxypropyl)-1H-benzo[d]imidazol-2-yl)piperidin-1-yl)butan-1-one]"
100 to 1000,–,"CC(=O)NCCn1c([C@@H]2CCCN(C(=O)C[C@H](N)Cc3ccc(-c4ccc(O)nc4)cc3)C2)nc2ccccc21 [Compound 445, N-(2-(2-((R)-1-((R)-3-amino-4-(4-(6-hydroxypyridin-3-yl)phenyl)butanoyl)piperidin-3-yl)-1H-benzo[d]imidazol-1-yl)ethyl)acetamide]"
100 to 1000,–,"COCCCn1c([C@@H]2CCCN(C(=O)C[C@H](N)CNC(=O)CC3CCCCC3)C2)nc2ccccc21 [Compound 319, N-((S)-2-amino-4-((R)-3-(1-(3-methoxypropyl)-1H-benzo[d]imidazol-2-yl)piperidin-1-yl)-4-oxobutyl)-2-cyclohexylacetamide]"
100 to 1000,–,"COCCCn1c([C@@H]2CCCN(C(=O)C[C@H](N)CNC(=O)c3ccccc3Cl)C2)nc2ccccc21 [Compound 320, N-((S)-2-amino-4-((R)-3-(1-(3-methoxypropyl)-1H-benzo[d]imidazol-2-yl)piperidin-1-yl)-4-oxobutyl)-2-chlorobenzamide]"
100 to 1000,–,"COCCCn1c([C@@H]2CCCN(C(=O)[C@@H]3CN(S(=O)(=O)c4cccc(Oc5ccccc5)c4)C[C@H]3N)C2)nc2ccccc21 [Compound 368, ((3R,4S)-4-amino-1-(3-phenoxyphenylsulfonyl)pyrrolidin-3-y1)((R)-3-(1-(3-methoxypropyl)-1H-benzo[d]imidazol-2-yl)piperidin-1-yl)methanone]"
